Source: patent publication US20070049564A1 (Wyeth, priority 2005, published 2007)
Converted amounts (≈) assume the structure as drawn. Read-outs that look alike come from different tables or passages of the source.

Assays:
Salmonella spp. GC 566 = assay: MIC, broth microdilution; settings: Salmonella
E. coli #311 = assay: In vivo activity (oral, iv; ED50) against E. coli in mice; settings: Escherichia coli
From the text: . […] Smith and E. Coli #311 in mammals.
Results of the tests (MIC, oral and IV) are list in Table 7.

S. cholerasius GC 1355 = assay: MIC, broth microdilution
Protocol: (§1) Antimicrobial susceptibility testing. The in vitro activities of the antibiotics are determined by the broth microdilution method as recommended by the National Committee for Clinical Laboratory Standards (NCCLS) (1). Mueller-Hinton II broth (MHBII)(BBL Cockeysville, Md.) is the medium employed in the testing procedures. Microtiter plates containing serial dilutions of each antimicrobial agent are inoculated with each organism to yield the appropriate density (10^5 CFU/ml) in a 100 μl final volume. The plates are incubated for 18-22 hours at 35° C. in ambient air.
Presented in Tables I-XIII are representative compounds of Formula I which were evaluated against a panel of 40 selected gram-positive and gram-negative bacteria strains by pre-incubation in water, mouse serum or human serum. Representative compounds were first incubated in mouse serum for an hour prior to the in vitro testing against a panel of selected gram-positive and gram-negative bacteria strains. All compounds were also pre-incubated in water for an hour prior to testing as control. Representative compounds of Formula I were incubated in human serum prior to MIC determination.

Salmonella spp. GC 235 = assay: MIC, broth microdilution
Protocol: as §1
Representative compounds were first incubated in mouse serum for an hour prior to the in vitro testing against a panel of selected gram-positive and gram-negative bacteria strains. All compounds were also pre-incubated in water for an hour prior to testing as control.

[1] = SPP.GC566, Salmonella spp. GC 566, Mouse Serum pre-incubation
[2] = SPP.GC566, Salmonella spp. GC 566, Water pre-incubation
[3] = single intravenous dose (SIV), read-out: ED50 E. coli #311 SIV
[4] = single oral dose (SOD), read-out: ED50 E. coli #311 SOD
[5] = S. cholerasius GC 1355, Mouse Serum pre-incubation
[6] = S. cholerasius GC 1355, Water pre-incubation
[7] = Salmonella, SPP.GC235, Salmonella spp. GC 235, Mouse Serum pre-incubation
[8] = Salmonella, SPP.GC235, Salmonella spp. GC 235, Water pre-incubation
[9] = SPP.GC566, pre-incubation in mouse serum
[10] = SPP.GC566, pre-incubation in water
[11] = Salmonella, SPP.GC235, pre-incubation in mouse serum
[12] = Salmonella, SPP.GC235, pre-incubation in water

Row | SMILES | MIC (Salmonella spp. GC 566; [1]) | MIC (Salmonella spp. GC 566; [2]) | ED50 (E. coli #311; [3]) | ED50 (E. coli #311; [4]) | MIC (S. cholerasius GC 1355; [5]) | MIC (S. cholerasius GC 1355; [6]) | MIC (Salmonella spp. GC 235; [7]) | MIC (Salmonella spp. GC 235; [8]) | MIC (Salmonella spp. GC 566; SPP.GC566, pre-incubation in human serum) | MIC (Salmonella spp. GC 566; [9]) | MIC (Salmonella spp. GC 566; [10]) | MIC (S. cholerasius GC 1355; pre-incubation in human serum) | MIC (S. cholerasius GC 1355; pre-incubation in mouse serum) | MIC (S. cholerasius GC 1355; pre-incubation in water) | MIC (Salmonella spp. GC 235; Salmonella, SPP.GC235, pre-incubation in human serum) | MIC (Salmonella spp. GC 235; [11]) | MIC (Salmonella spp. GC 235; [12]) | MIC (Salmonella spp. GC 235; pre-incubation in water)
1 | CCCCN(CC(=O)Nc1cc(N(C)C)c2c(c1O)C(=O)C1=C(O)[C@]3(O)C(=O)C(C(N)=O)=C(O)[C@@H](N(C)C)[C@@H]3C[C@@H]1C2)C(=O)OCOC(=O)c1ccc(F)cc1 [Example 4, ({[(2-{[(5aR,6aS,7S,10aS)-9-(aminocarbonyl)-4,7-bis(dimethylamino)-1,8,10a,11-tetrahydroxy-10,12-dioxo-5,5a,6,6a,7,10,10a,12-octahydrotetracen-2-yl]amino}-2-oxoethyl)(butyl)amino]carbonyl}oxy)methyl 4-fluorobenzoate] | 4 µg/mL (≈ 5.12 µM) | > 64 µg/mL | > 2 mg/kg | > 32 mg/kg | 8 µg/mL (≈ 10.2 µM) | > 64 µg/mL | 2 µg/mL (≈ 2.56 µM) | > 64 µg/mL |  |  |  |  |  |  |  |  |  | 
2 | CCCN(CC(=O)Nc1cc(N(C)C)c2c(c1O)C(=O)C1=C(O)[C@]3(O)C(=O)C(C(N)=O)=C(O)[C@@H](N(C)C)[C@@H]3C[C@@H]1C2)C(=O)OCOC(=O)c1ccc(F)cc1 [Example 8, ({[(2-{[(5aR,6aS,7S,10aS)-9-(aminocarbonyl)-4,7-bis(dimethylamino)-1,8,10a,11-tetrahydroxy-10,12-dioxo-5,5a,6,6a,7,10,10a,12-octahydrotetracen-2-yl]amino}-2-oxoethyl)(propyl)amino]carbonyl}oxy)methyl 4-fluorobenzoate] | 4 µg/mL (≈ 5.21 µM) | > 64 µg/mL |  |  | 32 µg/mL (≈ 41.7 µM) | > 64 µg/mL | 4 µg/mL (≈ 5.21 µM) | 64 µg/mL (≈ 83.4 µM) |  |  |  |  |  |  |  |  |  | 
3 | CCCN(CC(=O)Nc1cc(N(C)C)c2c(c1O)C(=O)C1=C(O)[C@]3(O)C(=O)C(C(N)=O)=C(O)[C@@H](N(C)C)[C@@H]3C[C@@H]1C2)C(=O)OCOC(=O)C(C)(C)C [Example 9, ({[(2-{[(5aR,6aS,7S,10aS)-9-(aminocarbonyl)-4,7-bis(dimethylamino)-1,8,10a,11-tetrahydroxy-10,12-dioxo-5,5a,6,6a,7,10,10a,12-octahydrotetracen-2-yl]amino}-2-oxoethyl)(propyl)amino]carbonyl}oxy)methyl pivalate] | 2 µg/mL (≈ 2.74 µM) | 64 µg/mL (≈ 87.7 µM) |  |  | 64 µg/mL (≈ 87.7 µM) | > 64 µg/mL | 1 µg/mL (≈ 1.37 µM) | 8 µg/mL (≈ 11 µM) |  |  |  |  |  |  |  |  |  | 
4 | CCCN(CC(=O)Nc1cc(N(C)C)c2c(c1O)C(=O)C1=C(O)[C@]3(O)C(=O)C(C(N)=O)=C(O)[C@@H](N(C)C)[C@@H]3C[C@@H]1C2)C(=O)OCOC(=O)C(C)C [Example 10, ({[(2-{[(5aR,6aS,7S,10aS)-9-(aminocarbonyl)-4,7-bis(dimethylamino)-1,8,10a,11-tetrahydroxy-10,12-dioxo-5,5a,6,6a,7,10,10a,12-octahydrotetracen-2-yl]amino}-2-oxoethyl)(propyl)amino]carbonyl}oxy)methyl 2-methylpropanoate] | 2 µg/mL (≈ 2.79 µM) | > 64 µg/mL |  |  | 16 µg/mL (≈ 22.4 µM) | > 64 µg/mL | 0.5 µg/mL (≈ 0.699 µM) | 32 µg/mL (≈ 44.7 µM) |  |  |  |  |  |  |  |  |  | 
5 | CCCN(CC(=O)Nc1cc(N(C)C)c2c(c1O)C(=O)C1=C(O)[C@]3(O)C(=O)C(C(N)=O)=C(O)[C@@H](N(C)C)[C@@H]3C[C@@H]1C2)C(=O)OCOC(=O)Cc1ccccc1 [Example 11, ({[(2-{[(5aR,6aS,7S,10aS)-9-(aminocarbonyl)-4,7-bis(dimethylamino)-1,8,10a,11′-tetrahydroxy-10,12-dioxo-5,5a,6,6a,7,10,10a,12-octahydrotetracen-2-yl]amino}-2-oxoethyl)(propyl)amino]carbonyl}oxy)methyl phenylacetate] | 2 µg/mL (≈ 2.62 µM) | > 64 µg/mL |  |  | 32 µg/mL (≈ 41.9 µM) | > 64 µg/mL | 0.5 µg/mL (≈ 0.655 µM) | 64 µg/mL (≈ 83.8 µM) |  |  |  |  |  |  |  |  |  | 
6 | CCCCN(CC(=O)Nc1cc(N(C)C)c2c(c1O)C(=O)C1=C(O)[C@]3(O)C(=O)C(C(N)=O)=C(O)[C@@H](N(C)C)[C@@H]3C[C@@H]1C2)C(=O)OCOC(=O)Cc1ccccc1 [Example 12, ({[(2-{[(5aR,6aS,7S,10aS)-9-(aminocarbonyl)-4,7-bis(dimethylamino)-1,8,10a,11-tetrahydroxy-10,12-dioxo-5,5a,6,6a,7,10,10a,12-octahydrotetracen-2-yl]amino}-2-oxoethyl)(butyl)amino]carbonyl}oxy)methyl phenylacetate] | 4 µg/mL (≈ 5.14 µM) | > 64 µg/mL |  |  | 16 µg/mL (≈ 20.6 µM) | > 64 µg/mL | 1 µg/mL (≈ 1.29 µM) | 64 µg/mL (≈ 82.3 µM) |  |  |  |  |  |  |  |  |  | 
7 | CCCCN(CC(=O)Nc1cc(N(C)C)c2c(c1O)C(=O)C1=C(O)[C@]3(O)C(=O)C(C(N)=O)=C(O)[C@@H](N(C)C)[C@@H]3C[C@@H]1C2)C(=O)OCOC(=O)C(C)(C)C [Example 13, ({[(2-{[(5aR,6aS,7S,10aS)-9-(aminocarbonyl)-4,7-bis(dimethylamino)-1,8,10a,11-tetrahydroxy-10,12-dioxo-5,5a,6,6a,7,10,10a,12-octahydrotetracen-2-yl]amino}-2-oxoethyl)(butyl)amino]carbonyl}oxy)methyl pivalate] | 8 µg/mL (≈ 10.8 µM) | 64 µg/mL (≈ 86 µM) |  |  | 16 µg/mL (≈ 21.5 µM) | > 64 µg/mL | 2 µg/mL (≈ 2.69 µM) | 16 µg/mL (≈ 21.5 µM) |  |  |  |  |  |  |  |  |  | 
8 | CCCN(CC(=O)Nc1cc(N(C)C)c2c(c1O)C(=O)C1=C(O)[C@]3(O)C(=O)C(C(N)=O)=C(O)[C@@H](N(C)C)[C@@H]3C[C@@H]1C2)C(=O)OCc1ccccc1 [Example 14, benzyl 2-{[(5aR,6aS,7S,10aS)-9-(aminocarbonyl)-4,7-bis(dimethylamino)-1,8,10a,11-tetrahydroxy-10,12-dioxo-5,5a,6,6a,7,10,10a,12-octahydrotetracen-2-yl]amino}-2-oxoethyl(propyl)carbamate] | > 64 µg/mL | > 64 µg/mL |  |  | > 64 µg/mL | > 64 µg/mL | > 64 µg/mL | > 64 µg/mL |  |  |  |  |  |  |  |  |  | 
9 | CCCN(CC(=O)Nc1cc(N(C)C)c2c(c1O)C(=O)C1=C(O)[C@]3(O)C(=O)C(C(N)=O)=C(O)[C@@H](N(C)C)[C@@H]3C[C@@H]1C2)C(=O)OCC [Example 15, ethyl 2-{[(5aR,6aS,7S,10aS)-9-(aminocarbonyl)-4,7-bis(dimethylamino)-1,8,10a,11-tetrahydroxy-10,12-dioxo-5,5a,6,6a,7,10,10a,12-octahydrotetracen-2-yl]amino}-2-oxoethyl(propyl)carbamate] | > 64 µg/mL | > 64 µg/mL |  |  | > 64 µg/mL | > 64 µg/mL | > 64 µg/mL | > 64 µg/mL |  |  |  |  |  |  |  |  |  | 
10 | CCCN(CC(=O)Nc1cc(N(C)C)c2c(c1O)C(=O)C1=C(O)[C@]3(O)C(=O)C(C(N)=O)=C(O)[C@@H](N(C)C)[C@@H]3C[C@@H]1C2)C(=O)OCC(C)C [Example 16, isobutyl 2-{[(5aR,6aS,7S,10aS)-9-(aminocarbonyl)-4,7-bis(dimethylamino)-1,8,10a,11-tetrahydroxy-10,12-dioxo-5,5a,6,6a,7,10,10a,12-octahydrotetracen-2-yl]amino}-2-oxoethyl(propyl)carbamate] | > 64 µg/mL | > 64 µg/mL |  |  | > 64 µg/mL | > 64 µg/mL | > 64 µg/mL | > 64 µg/mL |  |  |  |  |  |  |  |  |  | 
11 | CCCCC(=O)OCOC(=O)N(CC(=O)Nc1cc(N(C)C)c2c(c1O)C(=O)C1=C(O)[C@]3(O)C(=O)C(C(N)=O)=C(O)[C@@H](N(C)C)[C@@H]3C[C@@H]1C2)C(C)(C)C [Example 61, ({[(2-{[(5aR,6aS,7S,10aS)-9-(aminocarbonyl)-4,7-bis(dimethylamino)-1,8,10a,11-tetrahydroxy-10,12-dioxo-5,5a,6,6a,7,10,10a,12-octahydrotetracen-2-yl]amino}-2-oxoethyl)(tert-butyl)amino]carbonyl}oxy)methyl pentanoate] |  |  | 2 to 4 mg/kg | > 32 mg/kg |  |  |  |  | 32 µg/mL (≈ 43 µM) | 1 µg/mL (≈ 1.34 µM) | > 64 µg/mL | 64 µg/mL (≈ 86 µM) | 2 µg/mL (≈ 2.69 µM) | > 64 µg/mL | 16 µg/mL (≈ 21.5 µM) | 1 µg/mL (≈ 1.34 µM) | > 64 µg/mL | 
12 | CCCCN(CC(=O)Nc1cc(N(C)C)c2c(c1O)C(=O)C1=C(O)[C@]3(O)C(=O)C(C(N)=O)=C(O)[C@@H](N(C)C)C3CC1C2)C(=O)OCc1oc(=O)oc1C (stereo partly drawn) [Example 109, (5-methyl-2-oxo-1,3-dioxol-4-yl)methyl 2-{[(7S,10aS)-9-(aminocarbonyl)-4,7-bis(dimethylamino)-1,8,10a,11-tetrahydroxy-10,12-dioxo-5,5a,6,6a,7,10,10a,12-octahydrotetracen-2-yl]amino}-2-oxoethyl(butyl)carbamate] |  |  |  |  |  |  |  |  |  | 2 µg/mL (≈ 2.7 µM) | 4 µg/mL (≈ 5.39 µM) |  | 8 µg/mL (≈ 10.8 µM) | 32 µg/mL (≈ 43.1 µM) |  | 1 µg/mL (≈ 1.35 µM) | 2 µg/mL (≈ 2.7 µM) | 4 UG/ML
